Results: US20260317324A1, “BIFUNCTIONAL COMPOUNDS FOR DEGRADING BRAF VIA UBIQUITIN PROTEOSOME PATHWAY” (Nurix Therapeutics, Inc., priority 2023, published 2026)

Target: T1, BRAF V600E (Homo sapiens, UniProt P15056, V600E)
T1 construct: endogenous C-terminal HiBiT fusion tag on BRAF V600E allele; endogenous in cells; host or cells: A375 clone 1F10 (CRISPR-Cas9 knock-in of the HiBiT tag; parental A375 from ATCC)
Test: BRAF HiBiT degradation assay, C-terminal HiBiT-tagged BRAF V600E A375 cells (clone 1F10), Nano-Glo HiBiT Lytic assay
Format: cell-based
Settings: for Dmax: A-375
Summary of the method: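 Degradation is measured as loss of HiBiT signal from BRAF V600E tagged at its native locus in A375 cells. Doses span 1 μM to 0.01 nM in half-log steps, in duplicate. Percent remaining is calculated against DMSO controls after subtracting untagged A375 background, and curve fitting yields DC50 and observed Dmax.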

[1] = A375 (BRAF V600E), DC50 at 50%: fitted conc. at Y=50
[2] = A375 (BRAF V600E), percentage protein degraded at maximal compound effect relative to DMSO
[3] = A375 (BRAF V600E, Class 1), DC50 at 50% degradation
[4] = A375 (BRAF V600E, Class 1), observed Dmax, % protein degraded relative to DMSO control

T1 sequence (P15056 whole entry V600E, the tested form may be a part): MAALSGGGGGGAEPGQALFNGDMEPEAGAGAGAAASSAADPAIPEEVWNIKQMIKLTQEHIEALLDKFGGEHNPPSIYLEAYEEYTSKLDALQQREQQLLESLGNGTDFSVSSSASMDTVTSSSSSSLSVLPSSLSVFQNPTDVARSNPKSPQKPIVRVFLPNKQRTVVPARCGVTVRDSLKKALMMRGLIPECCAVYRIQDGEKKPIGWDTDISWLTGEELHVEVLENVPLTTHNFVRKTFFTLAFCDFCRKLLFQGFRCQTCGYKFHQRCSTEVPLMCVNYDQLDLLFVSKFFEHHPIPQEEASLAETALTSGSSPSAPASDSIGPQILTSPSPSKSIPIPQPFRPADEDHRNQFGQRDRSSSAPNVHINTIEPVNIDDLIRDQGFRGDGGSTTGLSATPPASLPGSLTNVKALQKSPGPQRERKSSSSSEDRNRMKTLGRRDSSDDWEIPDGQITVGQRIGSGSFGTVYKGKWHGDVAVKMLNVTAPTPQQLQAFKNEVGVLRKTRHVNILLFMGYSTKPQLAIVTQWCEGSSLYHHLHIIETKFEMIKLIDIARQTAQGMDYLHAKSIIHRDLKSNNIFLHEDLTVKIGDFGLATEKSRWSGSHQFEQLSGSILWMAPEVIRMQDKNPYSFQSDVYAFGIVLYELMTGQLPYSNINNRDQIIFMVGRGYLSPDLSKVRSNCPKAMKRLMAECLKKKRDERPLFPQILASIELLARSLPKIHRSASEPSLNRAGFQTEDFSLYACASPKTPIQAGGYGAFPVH

Row | DC50 [1] [nM] | Dmax [2] [%] | DC50 [3] [nM] | Dmax [4] [%] | SMILES
1 | 10 to 50 | 30 to 70 |  |  | CCCS(=O)(=O)Nc1cccc(-c2nc(C(C)(C)C)sc2-c2ccnc(Nc3ccc(C4CCN(C(=O)C5CCN(c6ccc(C7CCC(=O)NC7=O)cc6)CC5)CC4)cc3)n2)c1F (racemic) [Compound 37, Rac-N-(3-{2-tert-butyl-5-[2-({4-[1-(1-{4-[(3R)-2,6-dioxopiperidin-3-yl]phenyl}piperidine-4-carbonyl)piperidin-4-yl]phenyl}amino)pyrimidin-4-yl]-1,3-thiazol-4-yl}-2-fluorophenyl)propane-1-sulfonamide]
2 | 10 to 50 | > 70 |  |  | CCN(C)S(=O)(=O)Nc1cccc(-c2nc(C)sc2-c2ccnc(Nc3ccc(N4CCN(CC5(C)CCN(c6ccc(C7CCC(=O)NC7=O)cn6)CC5)CC4)cn3)n2)c1F (racemic) [Compound 34, Rac-(3S)-3-{6-[4-({4-[6-({4-[4-(3-{[ethyl(methyl)sulfamoyl]amino}-2-fluorophenyl)-2-methyl-1,3-thiazol-5-yl]pyrimidin-2-yl}amino)pyridin-3-yl]piperazin-1-yl}methyl)-4-methylpiperidin-1-yl]pyridin-3-yl}piperidine-2,6-dione]
3 | < 10 | > 70 |  |  | CCCS(=O)(=O)Nc1cccc(-c2nc(C3CCN(C(=O)C4(C)CCN(C(=O)C5CCN(c6ccc(C7CCC(=O)NC7=O)cc6)CC5)CC4)CC3)sc2-c2ccncn2)c1F (racemic) [Compound 178, Rac-N-[3-(2-{1-[1-(1-{4-[(3R)-2,6-dioxopiperidin-3-yl]phenyl}piperidine-4-carbonyl)-4-methylpiperidine-4-carbonyl]piperidin-4-yl}-5-(pyrimidin-4-yl)-1,3-thiazol-4-yl)-2-fluorophenyl]propane-1-sulfonamide]
4 | 10 to 50 | > 70 |  |  | CCCS(=O)(=O)Nc1cccc(-c2nc(C(C)(C)C)sc2-c2ccnc(Nc3cccc(OC4CCN(C(=O)CN5CCc6cc(C7CCC(=O)NC7=O)ccc6C5)CC4)c3)n2)c1F (racemic) [Compound 101, Rac-N-[3-(2-tert-butyl-5-{2-[(3-{[1-(2-{6-[(3R)-2,6-dioxopiperidin-3-yl]-1,2,3,4-tetrahydroisoquinolin-2-yl}acetyl)piperidin-4-yl]oxy}phenyl)amino]pyrimidin-4-yl}-1,3-thiazol-4-yl)-2-fluorophenyl]propane-1-sulfonamide]
5 | 50 to 500 | 30 to 70 |  |  | CCCS(=O)(=O)Nc1cccc(-c2nc(C(C)(C)C)sc2-c2ccnc(Nc3cccc(C4CCN(C(=O)CN5CCc6cc(C7CCC(=O)NC7=O)ccc6C5)CC4)c3)n2)c1F (racemic) [Compound 104, Rac-N-(3-{2-tert-butyl-5-[2-({3-[1-(2-{6-[(3R)-2,6-dioxopiperidin-3-yl]-1,2,3,4-tetrahydroisoquinolin-2-yl}acetyl)piperidin-4-yl]phenyl}amino)pyrimidin-4-yl]-1,3-thiazol-4-yl}-2-fluorophenyl)propane-1-sulfonamide]
6 | 10 to 50 | 30 to 70 |  |  | CCCS(=O)(=O)Nc1cccc(-c2nc(C(C)(C)C)sc2-c2ccnc(Nc3cnn(CC4CCN(CC5CCN(c6ccc(C(=O)NC7CCC(=O)NC7=O)nc6)CC5)CC4)c3)n2)c1F (racemic) [Compound 82, Rac-5-(4-{[4-({4-[(4-{2-tert-butyl-4-[2-fluoro-3-(propane-1-sulfonamido)phenyl]-1,3-thiazol-5-yl}pyrimidin-2-yl)amino]-1H-pyrazol-1-yl}methyl)piperidin-1-yl]methyl}piperidin-1-yl)-N-[(3R)-2,6-dioxopiperidin-3-yl]pyridine-2-carboxamide]
7 |  |  | > 500 | < 30 | CCCS(=O)(=O)Nc1cccc(-c2nc(C3CCN(Cc4ccc(C(=O)N[C@@H]5CCC(=O)NC5=O)cc4)CC3)sc2-c2ccnc(N)n2)c1F [Compound 255, 4-({4-[5-(2-aminopyrimidin-4-yl)-4-[2-fluoro-3-(propane-1-sulfonamido)phenyl]-1,3-thiazol-2-yl]piperidin-1-yl}methyl)-N-[(3R)-2,6-dioxopiperidin-3-yl]benzamide]
8 | < 10 | > 70 |  |  | CCCS(=O)(=O)Nc1cccc(-c2nc(C3CCN(C(=O)C4(C)CCN(C(=O)C5CCN(c6ccc(C7CCC(=O)NC7=O)cc6)CC5)CC4)CC3)sc2-c2ccnc(N)n2)c1F (racemic) [Compound 196, Rac-N-{3-[5-(2-aminopyrimidin-4-yl)-2-{1-[1-(1-{4-[(3R)-2,6-dioxopiperidin-3-yl]phenyl}piperidine-4-carbonyl)-4-methylpiperidine-4-carbonyl]piperidin-4-yl}-1,3-thiazol-4-yl]-2-fluorophenyl}propane-1-sulfonamide]
9 |  |  | < 10 | > 70 | O=C1CC[C@H](c2ccc(N3CCC(CN4CCN(c5cnc(-n6cc(-c7cc(F)cc(NS(=O)(=O)N8CCCC8)c7F)c(-c7ccncc7)n6)nc5)CC4)CC3)cc2)C(=O)N1 [Compound 342, N-{3-[1-(5-{4-[(1-{4-[(3R)-2,6-dioxopiperidin-3-yl]phenyl}piperidin-4-yl)methyl]piperazin-1-yl}pyrimidin-2-yl)-3-(pyridin-4-yl)-1H-pyrazol-4-yl]-2,5-difluorophenyl}pyrrolidine-1-sulfonamide]
10 | < 10 | > 70 |  |  | CCCS(=O)(=O)Nc1cccc(-c2nc(C3CCC4(CC3)CCN(C(=O)CN3CCC5(CC3)CN(c3ccc6c(c3)C(=O)N(C3CCC(=O)NC3=O)C6=O)C5)CC4)sc2-c2ccnc(N)n2)c1F (racemic) [Compound 237, Rac-N-{3-[5-(2-aminopyrimidin-4-yl)-2-{3-[2-(2-{2-[(3R)-2,6-dioxopiperidin-3-yl]-1,3-dioxo-2,3-dihydro-1H-isoindol-5-yl}-2,7-diazaspiro[3.5]nonan-7-yl)acetyl]-3-azaspiro[5.5]undecan-9-yl}-1,3-thiazol-4-yl]-2-fluorophenyl}propane-1-sulfonamide]
11 | 10 to 50 | > 70 |  |  | CCCS(=O)(=O)Nc1cccc(-c2nc(C)sc2-c2ccnc(Nc3ccc(N4CCN(CC5CCN(c6ccc([C@H]7CCC(=O)NC7=O)cc6)CC5)CC4)cn3)n2)c1F [Compound 60, N-[3-(5-{2-[(5-{4-[(1-{4-[(3R)-2,6-dioxopiperidin-3-yl]phenyl}piperidin-4-yl)methyl]piperazin-1-yl}pyridin-2-yl)amino]pyrimidin-4-yl}-2-methyl-1,3-thiazol-4-yl)-2-fluorophenyl]propane-1-sulfonamide]
12 |  | 30 to 70 |  |  | CCCS(=O)(=O)Nc1cccc(-c2nc(C(C)(C)C)sc2-c2ccnc(Nc3ccc4c(c3)CCN(C(=O)C3CCN(c5ccc(C(=O)NC6CCC(=O)NC6=O)nc5)CC3)C4)n2)c1F (racemic) [Compound 122, Rac-5-(4-{6-[(4-{2-tert-butyl-4-[2-fluoro-3-(propane-1-sulfonamido)phenyl]-1,3-thiazol-5-yl}pyrimidin-2-yl)amino]-1,2,3,4-tetrahydroisoquinoline-2-carbonyl}piperidin-1-yl)-N-[(3R)-2,6-dioxopiperidin-3-yl]pyridine-2-carboxamide]
13 | 10 to 50 | 30 to 70 |  |  | CCCS(=O)(=O)Nc1cccc(-c2nc(-c3ccc(C4CCN(C(=O)C5CCN(c6ccc(C7CCC(=O)NC7=O)cn6)CC5)CC4)cc3)sc2-c2ccnc(N)n2)c1F (racemic) [Compound 201, Rac-N-{3-[5-(2-aminopyrimidin-4-yl)-2-{4-[1-(1-{5-[(3R)-2,6-dioxopiperidin-3-yl]pyridin-2-yl}piperidine-4-carbonyl)piperidin-4-yl]phenyl}-1,3-thiazol-4-yl]-2-fluorophenyl}propane-1-sulfonamide]
14 | > 500 | 30 to 70 |  |  | CCCS(=O)(=O)Nc1cccc(-c2nc(C3CCN(C(=O)[C@H]4CC[C@H](CN5CCc6cc(C7CCC(=O)NC7=O)ccc6C5)CC4)CC3)sc2-c2ccnc(N)n2)c1F (mixture of isomers) [Compound 222, N-{3-[5-(2-aminopyrimidin-4-yl)-2-{1-[(1r,4r)-4-({6-[(3RS)-2,6-dioxopiperidin-3-yl]-1,2,3,4-tetrahydroisoquinolin-2-yl}methyl)cyclohexanecarbonyl]piperidin-4-yl}-1,3-thiazol-4-yl]-2-fluorophenyl}propane-1-sulfonamide]
15 | < 10 | > 70 |  |  | CCCS(=O)(=O)Nc1cccc(-c2nc(C3CCN(CC4CCN(C(=O)CC5CCN(c6ccc(C7CCC(=O)NC7=O)cn6)CC5)CC4)CC3)sc2-c2ccnc(N)n2)c1F (racemic) [Compound 202, Rac-N-{3-[5-(2-aminopyrimidin-4-yl)-2-[1-({1-[2-(1-{5-[(3R)-2,6-dioxopiperidin-3-yl]pyridin-2-yl}piperidin-4-yl)acetyl]piperidin-4-yl}methyl)piperidin-4-yl]-1,3-thiazol-4-yl]-2-fluorophenyl}propane-1-sulfonamide]
16 | 50 to 500 | 30 to 70 |  |  | CCCS(=O)(=O)Nc1cccc(-c2nc(C(C)(C)C)sc2-c2ccnc(Nc3cnn(C4CCN(C(=O)[C@@H]5CCN(c6ccc(C7CCC(=O)NC7=O)cn6)C5)CC4)c3)n2)c1F (mixture of isomers) [Compound 106, N-[3-(2-tert-butyl-5-{2-[(1-{1-[(3R)-1-{5-[(3RS)-2,6-dioxopiperidin-3-yl]pyridin-2-yl}pyrrolidine-3-carbonyl]piperidin-4-yl}-1H-pyrazol-4-yl)amino]pyrimidin-4-yl}-1,3-thiazol-4-yl)-2-fluorophenyl]propane-1-sulfonamide]
